Paper PMC10380083, “Synthesis of Prostate-Specific Membrane Antigen-Targeted Bimodal Conjugates of Cytotoxic Agents and Antiandrogens and Their Comparative Assessment with Monoconjugates” (International Journal of Molecular Sciences, 2023)
Read-outs that look alike come from different tables or passages of the source. *1 amine or outer side, *2 acyl side, *3 side chain or, on linkers, in order; H or OH if unused. Where a SMILES comes first, the peptide text is derived from it. [ ]: non-standard residue; d: D form. The star is where a group is joined. GluureaLys(ε-3-ClBenzyl) = O=C(O)CC[C@H](NC(=O)N[C@@H](CCCCN(Cc1cccc(Cl)c1)*)C(=O)O)C(=O)O; X4 = C[C@]12CC[C@H](OC(=O)CCC(=O)*)CC1=CC[C@@H]1[C@@H]2CC[C@]2(C)C(c3cccnc3)=CC[C@@H]12; Dolaproine = CO[C@@H]([C@@H]1CCCN1)[C@@H](C)C(=O)O; Dil = CC[C@H](C)[C@H](NC)[C@@H](CC(=O)O)OC; X2 = O=C(CCCc1cn(CCCN[*:1])nn1)[*:2]; PABC = O=C(OCc1ccc(N[*:1])cc1)[*:2]; X1 = C[C@@H](N*)[C@@H](O)c1ccccc1; Cit = NC(=O)NCCC[C@H](N)C(=O)O; Suc = O=C(CCC(=O)[*:2])[*:1]; NMeV = CN[C@H](C(=O)O)C(C)C; Ahx = NCCCCCC(=O)O

Assays:
[1] = test system: 22Rv1 human prostate carcinoma xenograft; details: 22Rv1 xenograft; for tumor volume V±m: i.v. triple injection, single dose 132.3 nM/kg; for Tumor growth inhibition: i.v. 132.3 nM/kg three times
[2] = test system: PC-3 prostate adenocarcinoma xenograft; details: PC-3 xenograft; for tumor volume V±m: i.v. triple injection, single dose 132.3 nM/kg; for Tumor growth inhibition: i.v. 132.3 nM/kg three times
[3] = Body weight, general condition and mortality in the antitumor efficacy study; details: i.v. 132.3 nM/kg x3
[4] = 7 day after tumor implantation (1st injection)
[5] = 12 day after tumor implantation (2nd injection)
[6] = 22 day after tumor implantation
[7] = 33 day after tumor implantation
[8] = 37 day after tumor implantation
[9] = days after the start of treatment: 1
[10] = days after the start of treatment: 5
[11] = days after the start of treatment: 10
[12] = days after the start of treatment: 16
[13] = days after the start of treatment: 20

## CC[C@H](C)[C@@H]([C@@H](CC(=O)N1CCC[C@H]1[C@H](OC)[C@@H](C)C(=O)N[C@H](C)[C@@H](O)c1ccccc1)OC)N(C)C(=O)[C@@H](NC(=O)[C@H](C(C)C)N(C)C(=O)OCc1ccc(NC(=O)[C@H](CCCNC(N)=O)NC(=O)[C@@H](NC(=O)CCCc2cn(CCCNC(=O)[C@H](CCCCNC(=O)CCC(=O)O[C@H]3CC[C@@]4(C)C(=CC[C@@H]5[C@@H]4CC[C@]4(C)C(c6cccnc6)=CC[C@@H]54)C3)NC(=O)[C@H](Cc3ccc(O)cc3)NC(=O)[C@H](Cc3ccccc3)NC(=O)CCC(=O)NCCCCCC(=O)N(CCCC[C@H](NC(=O)N[C@@H](CCC(=O)O)C(=O)O)C(=O)O)Cc3cccc(Cl)c3)nn2)C(C)C)cc1)C(C)C [13a] ({GluureaLys(ε-3-ClBenzyl)-Ahx-Suc}-FYK(X4)[X2]V[Cit][PABC][NMeV]V[Dil][Dolaproine]-X1)
[1]; [4]
  tumor volume V±m: 69.6±17.0 mm3
[1]; [5]
  tumor volume V±m: 77.2±9.3 mm3
[1]; 17 day after tumor implantation (3rd injection)
  tumor volume V±m: 81.4±25.8 mm3
[1]; [6]
  tumor volume V±m: 121.7 mm3
[1]; [7]
  tumor volume V±m: 391.6 mm3
[1]; [8]
  tumor volume V±m: 784.0 mm3
[1]; [9]
  Tumor growth inhibition: 62.0%
[1]; [10]
  Tumor growth inhibition: 77.1%
[1]; [11]
  Tumor growth inhibition: 80.4%
[1]; [12]
  Tumor growth inhibition: 80.6%
[1]; [13]
  Tumor growth inhibition: 72.6%
[2]; [4]
  tumor volume V±m: 82.2±5.9 mm3
[2]; [5]
  tumor volume V±m: 127.5 mm3
[2]; [6]
  tumor volume V±m: 292.5 mm3
[2]; 27 day after tumor implantation
  tumor volume V±m: 463.1 mm3
[2]; [7]
  tumor volume V±m: 958.0 mm3
[2]; [8]
  tumor volume V±m: 1684.0 mm3
[2]; [9]
  Tumor growth inhibition: 36.2%
[2]; [10]
  Tumor growth inhibition: 40.0%
[2]; [11]
  Tumor growth inhibition: 44.9%
[2]; [12]
  Tumor growth inhibition: 29.5%
[2]; [13]
  Tumor growth inhibition: 38.3%
[2]; i.v. 132.3 nM/kg three times at five-day intervals, male Balb/c nude mice
  TGI, did not exceed: ≤ 44.9%
[3]; 22Rv1 xenograft mice, 7 day after tumor implantation (1st injection)
  body weight, mass ± error: 22.3 ± 1.3 g
[3]; 22Rv1 xenograft mice, 12 day after tumor implantation (2nd injection)
  body weight, mass ± error: 22.5 ± 1.4 g
[3]; 22Rv1 xenograft mice, 17 day after tumor implantation (3rd injection)
  body weight, mass ± error: 22.2 ± 1.4 g
[3]; 22Rv1 xenograft mice, 22 day after tumor implantation
  body weight, mass ± error: 22.2 ± 1.4 g
[3]; 22Rv1 xenograft mice, 27 day after tumor implantation
  body weight, mass ± error: 22.5 ± 1.3 g
[3]; 22Rv1 xenograft mice, 33 day after tumor implantation
  body weight, mass ± error: 22.7 ± 1.3 g
[3]; 22Rv1 xenograft mice, 37 day after tumor implantation
  body weight, mass ± error: 22.7 ± 1.3 g
[3]; PC-3 xenograft mice, 7 day after tumor implantation (1st injection)
  body weight, mass ± error: 24.9 ± 1.2 g
[3]; PC-3 xenograft mice, 12 day after tumor implantation (2nd injection)
  body weight, mass ± error: 24.7 ± 1.5 g
[3]; PC-3 xenograft mice, 17 day after tumor implantation (3rd injection)
  body weight, mass ± error: 24.8 ± 1.4 g
[3]; PC-3 xenograft mice, 22 day after tumor implantation
  body weight, mass ± error: 25.0 ± 1.4 g
[3]; PC-3 xenograft mice, 27 day after tumor implantation
  body weight, mass ± error: 25.1 ± 1.3 g
[3]; PC-3 xenograft mice, 33 day after tumor implantation
  body weight, mass ± error: 25.2 ± 1.2 g
[3]; PC-3 xenograft mice, 37 day after tumor implantation
  body weight, mass ± error: 25.3 ± 1.2 g
